US7381745B2, “Ligands for metabotropic glutamate receptors and inhibitors of NAALADase” (Georgetown University, priority 1999, dated 2008)
“And” between values parts separate entries of the source, which are not always exact repeats. Equal entries are not always repeated. Where two headings read alike, the source gives them in different places. Residues, ends and D or L forms follow the SMILES beside them.

Assays:
rat GCPII [1] = target: T1, rat GCPII (Rattus norvegicus, UniProt P70627); experiment: Inhibition of rat GCPII stably expressed in CHO cells; format: biochemical; conditions: for IC50: read-out: IC50 against expressed rat GCPII
T1 construct: expressed in transfected cells
T1 sequence (P70627 whole entry): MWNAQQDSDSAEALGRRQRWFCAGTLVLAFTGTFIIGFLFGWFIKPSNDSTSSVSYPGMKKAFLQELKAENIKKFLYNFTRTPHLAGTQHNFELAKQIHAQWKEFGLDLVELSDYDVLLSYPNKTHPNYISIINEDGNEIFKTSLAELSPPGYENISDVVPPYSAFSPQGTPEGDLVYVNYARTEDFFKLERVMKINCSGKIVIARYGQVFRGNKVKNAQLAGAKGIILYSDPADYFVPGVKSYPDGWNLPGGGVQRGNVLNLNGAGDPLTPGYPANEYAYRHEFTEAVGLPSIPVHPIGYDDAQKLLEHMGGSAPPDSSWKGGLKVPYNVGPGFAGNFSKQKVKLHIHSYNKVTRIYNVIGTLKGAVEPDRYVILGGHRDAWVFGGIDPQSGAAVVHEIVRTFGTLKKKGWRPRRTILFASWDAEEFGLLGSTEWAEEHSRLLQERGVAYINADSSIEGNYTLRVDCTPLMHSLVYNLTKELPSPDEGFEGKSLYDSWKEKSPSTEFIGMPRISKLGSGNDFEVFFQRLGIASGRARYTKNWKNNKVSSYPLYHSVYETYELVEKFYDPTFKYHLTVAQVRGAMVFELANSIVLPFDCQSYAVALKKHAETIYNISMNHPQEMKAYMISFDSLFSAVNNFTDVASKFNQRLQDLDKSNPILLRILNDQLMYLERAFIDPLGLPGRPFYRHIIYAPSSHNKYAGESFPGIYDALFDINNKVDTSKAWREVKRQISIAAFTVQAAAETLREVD

[2] = system: NMDA toxicity in cortical neuronal cells; experiment: NMDA toxicity model C: cortical neurons given medium from drug-treated glial cells, LDH release; format: cell-based, mice; conditions: for Neuroprotection against NMDA toxicity: model C protocol, 1 μM, LDH at 24 hours
Experimental: (§1) We have tested the validity of these statements using three models of NMDA toxicity in cultures of cortical neurons prepared from fetal mice. The first model (A) consists of using a culture containing neurons without glial cells. NMDA (75 μM) is applied for 10 min without or with the tested compound. Then the culture medium is replaced and cells are left for 24 hours to develop toxicity. The second model (B) involves the use of mice cortical neurons which are seeded on a layer of confluent glial cells (mostly astrocytes) prepared from cerebral cortex of newborn mice. The incubations are identical as in model A. The third model (C) separates the neuronal and glial cultures. Glial cultures are treated with the tested neuroprotective compound in order to induce the release of protective factors into the medium. In parallel, cultures of cortical neurons (without glia) are treated for 10 min with NMDA (20 μM). Then NMDA is washed out and the neurons are treated with the medium collected from the treated glial cells. In all cases toxicity is assessed 24 hours after NMDA treatment by measurements of lactate dehydrogenase (LDH) activity accumulated in the medium during this period of time.
This was done using a published protocol in which cultures of cortical glial cells are first treated with the test compound in order to induce the release of protective factors into the medium. In parallel, cultures of cortical neurons (without glia) are exposed for 10 min to the excitotoxic action of NMDA (20 μM). The NMDA is removed by washing, and the neurons are treated with the medium collected from the treated glial cells. Toxicity is then assessed 24 hours after NMDA treatment by the measurement of lactate dehydrogenase (LDH) activity, which serves as a marker for dying cells. […] Among the potent GCPII inhibitors tested, three compounds [HO2C(CH2)2CH(CO2H)CH2]2P(O)(OH), (S)-Glu-C(O)-(S)Glu, and (S)-Asp-C(O)-(S)Glu produced at 1 μM a similarly modest neuroprotection ranging from 21% to 31%. In contrast, the two Cys-containing compounds, (t-Bu)Cys-C(O)-(S)-Glu and (S)-Cys-C(O)-(S)-Glu, produced 69% and 50% neuroprotection, respectively. While the exact mechanism of this neuroprotective effect cannot be explained based entirely upon GCPII inhibition, these exciting results warrant further study in other models of in vitro toxicity, including the assessment of the compounds' effects in vivo.

rat GCPII [3] = target: T1, rat GCPII; conditions: cited from earlier work; for IC50: read-out: IC50 against GCPII
mGluR3 [4] = target: T2, mGluR3 (Rattus norvegicus, UniProt P31422); conditions: cited from earlier work
T2 construct: expressed in transfected cells
T2 sequence (P31422 23-879): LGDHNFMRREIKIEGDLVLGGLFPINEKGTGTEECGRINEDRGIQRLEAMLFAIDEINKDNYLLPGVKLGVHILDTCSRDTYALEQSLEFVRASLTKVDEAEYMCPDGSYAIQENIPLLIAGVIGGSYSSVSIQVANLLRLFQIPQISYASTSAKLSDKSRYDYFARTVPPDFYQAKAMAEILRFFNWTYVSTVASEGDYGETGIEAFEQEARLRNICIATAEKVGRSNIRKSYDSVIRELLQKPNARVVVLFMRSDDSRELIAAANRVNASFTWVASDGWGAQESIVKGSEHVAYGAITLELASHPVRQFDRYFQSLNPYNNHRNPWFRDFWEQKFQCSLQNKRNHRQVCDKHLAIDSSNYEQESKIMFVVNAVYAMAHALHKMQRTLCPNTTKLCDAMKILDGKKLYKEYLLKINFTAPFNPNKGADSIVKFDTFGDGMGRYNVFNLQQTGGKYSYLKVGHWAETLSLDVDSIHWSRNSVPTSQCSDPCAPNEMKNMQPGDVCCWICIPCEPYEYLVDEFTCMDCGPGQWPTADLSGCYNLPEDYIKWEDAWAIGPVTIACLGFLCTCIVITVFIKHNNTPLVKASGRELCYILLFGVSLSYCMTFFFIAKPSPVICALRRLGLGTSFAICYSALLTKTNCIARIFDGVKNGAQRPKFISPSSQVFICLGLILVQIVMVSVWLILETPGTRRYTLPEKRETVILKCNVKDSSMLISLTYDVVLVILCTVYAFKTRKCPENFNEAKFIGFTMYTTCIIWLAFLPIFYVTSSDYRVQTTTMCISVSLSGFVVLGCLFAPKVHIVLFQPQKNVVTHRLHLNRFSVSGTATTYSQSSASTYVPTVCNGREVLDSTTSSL

[5] = system: NMDA toxicity in mixed cultures of cortical neuronal-glial cells; experiment: NMDA toxicity model B: mixed cortical neuronal-glial cultures, LDH release; format: cell-based, mice
Experimental: as §1

NAALADase = NAALADase (Rattus norvegicus, UniProt P70627); experiment: NAALADase inhibition; format: biochemical; conditions: read-out: IC50 as NAALADase inhibitor
Chain of NAALADase (P70627 whole entry): as the sequence (P70627 whole entry) above

[6] = system: U-87 glioblastoma multiforme cells; experiment: Antiangiogenesis in s.c. glioblastoma xenografts (vWF staining); format: in vivo; conditions: 100 μM, 0.1 mL once daily into base of xenograft, harvested at 7 days
Experimental: Implanted xenografts were formed by s.c. inoculation with 2×10^6 U-87 glioblastoma multiforme cells mixed with 0.5 mg Matrigel. FN11 was dissolved in PBS to a concentration of either 10 or 100 μM, and injections (0.1 mL) were made once daily into the base of the s.c. implanted xenografts. The starting volumes of the tumors were approximately 250 mm^3. The results from this protocol are depicted in FIG. 15.
Control tumors and tumors grown under the conditions described in Example 21 were harvested at the end of 7 days, fixed in formalin and embedded in paraffin for sectioning. Tissue was stained immunohistochemically for von Willebrand's factor (vWF) to obtain a measure of vascularization. FIGS. 13 and 14 present the results of this protocol for the tumor treated with FN11 at 100 μM. FIG. 13 was taken at low magnification (100×), whereas FIG. 14 was taken at high magnification (400×).

[7] = system: transient middle cerebral artery occlusion; conditions: cited from earlier work
NMDA-induced cell death = conditions: other in vitro models; cited from earlier work
mGluR3 [8] = target: T2, mGluR3; experiment: mGluR3 receptor activation (cell lines transfected with mGluRs); format: cell-based
Text: Our studies began from the dipeptide N-acetyl-L-aspartate-L-glutamate (NAAG), a dipeptide that is quite abundant in the brain, and which is believed to act as a transmitter or co-transmitter in the central nervous system, much like glutamate itself. […] 69, 174(1997)]. Recently, a brain enzyme was identified that is specific for the cleavage of N-acetylated α-linked acidic dipeptides, and as a result this enzyme was named NAALADase [J. Biol. Chem., 1987, 262, 14498].

[9] = system: NMDA toxicity in cultures of cortical neurons; experiment: NMDA toxicity model A: cortical neurons without glial cells, LDH release; format: cell-based, mice; conditions: 10 μM, NMDA 75 μM
Experimental: as §1

Molecule: O=C(O)CC[C@H](NC(=O)N[C@@H](CS)C(=O)O)C(=O)O [PC118]
- GCPII inhibitory activity (in words) (rat GCPII [1]): nearly as potent as (S)-Glu-C(O)-(S)-Glu
- IC50 (rat GCPII [1]): 72.4 ± 6.5 nM
- Neuroprotection against NMDA toxicity ([2]; NMDA 20 μM): 50%

Molecule: O=C(NC(CS)C(=O)O)NC(CS)C(=O)O [(S)-Cys-C(O)-(S)-Cys]
- GCPII inhibitory activity (in words) (rat GCPII [1]; tested at 1 μM): Inactive at 1 μM

Molecule: O=C(O)C[C@H](NC(=O)N[C@@H](CC(=O)O)C(=O)O)C(=O)O [PC103]
- IC50 (rat GCPII [1]): 3800 nM

Molecule: O=C(O)CCC(CP(=O)(O)CC(CCC(=O)O)C(=O)O)C(=O)O (racemic) [FN6, 4,4′-phosphinicobis(butane-1,3-dicarboxylic acid)]
- IC50 (rat GCPII [3]; previous work, listed as PBBDA): 21.7 ± 2.1 nM
- IC50 (rat GCPII [3]; previous work, listed as [HO2C(CH2)2CH(CO2H)CH2]2P(O)(OH)): 26 nM
- EC50 (mGluR3 [4]; previous work, read-out: mGluR3 selective agonist potency): ~30000 nM
- Neuroprotection ([5]; 300 μM): about 30%
- IC50 (NAALADase): 4 nM

Molecule: O=C(O)CC[C@H](NC(=O)N[C@@H](CCC(=O)O)C(=O)O)C(=O)O [FN11]
- IC50 (rat GCPII [1]): 47 nM
- Vascularization of tumor (von Willebrand's factor staining) [6]: preponderance of avascular and low vascular areas

Molecule: O=C(O)CC[C@H](NC(=O)NCC(=O)O)C(=O)O [PC108]
- GCPII inhibitory activity (in words) (rat GCPII [1]): inactive
- inhibition at 1 µM (rat GCPII [1]; at 1 μM): 46%

Molecule: O=C(O)CC[C@H](NC(=O)N[C@H](CCC(=O)O)C(=O)O)C(=O)O [FN16]
- inhibition at 100 µM (rat GCPII [1]; read-out: inhibition of expressed rat GCPII): 97%

Molecule: CC(C)(C)NC(=O)N[C@@H](CCC(=O)O)C(=O)O (hydrate or solvate) [PC113]
- melting point: 108 to 110 °C

Molecule: N[C@@H](CCC(=O)O)C(=O)N[C@@H](CCC(=O)O)C(=O)O [(S)-Glu-(S)-Glu, reference compound] (H-Glu-Glu-OH)
- fold less potent than (S)Glu-C(O)-(S)Glu at GCPII (rat GCPII [1]): 16 fold

Molecule: O=C(O)C[C@H](NC(=O)N[C@@H](CC(=O)O)C(=O)O)C(=O)O (hydrate or solvate) [PC103]
- melting point: > 142 °C

Molecule: CC(C)(C)NC(=O)N[C@@H](CCC(=O)O)C(=O)O [PC113]
- GCPII inhibitory activity (in words) (rat GCPII [1]): inactive
- inhibition at 1 µM (rat GCPII [1]; at 1 μM): 10%

Molecule: O=C(O)CC[C@H](NC(=O)N[C@@H](CC(=O)O)C(=O)O)C(=O)O [PC107]
- IC50 (rat GCPII [1]; listed as (S)-Asp-C(O)-(S)-Glu): 46 nM and 46.1 nM

Molecule: CC(C)(C)SC[C@H](NC(=O)N[C@@H](CCC(=O)O)C(=O)O)C(=O)O [PC120]
- IC50 (rat GCPII [1]): 101 ± 19.3 nM
- Ki (rat GCPII [1]; read-out: Ki against GCPII): ~100 nM
- Neuroprotection against NMDA toxicity ([2]; NMDA 20 μM): 69%

Molecule: 2-(phosphomethyl)pentanedioic acid [PMPA, reference compound]
- Neuroprotection against NMDA toxicity ([2]; NMDA 20 μM): about 25%
- Neuroprotection (in words) ([2]; model C, compared with FN6 enantiomers): less effective
- Glutamate and NAAG levels (in words) ([7]; rat MCAO model): decreased glutamate levels while increasing NAAG levels
- Protection against injury (in words) ([7]; rats, Slusher et al.): significant protection against injury
- Neuroprotection against NMDA-induced cell death (NMDA-induced cell death): 16%
- mGluR3 activity (in words) (mGluR3 [8]): act as an agonist at mGluR3

Molecule: O=C(O)CC[C@H](NC(=O)C(=O)N[C@@H](CCC(=O)O)C(=O)O)C(=O)O [(S)-Glu-C(O)-C(O)-(S)-Glu]
- GCPII inhibitory activity (in words) (rat GCPII [1]): inactive
- inhibition of expressed rat GCPII (rat GCPII [1]; at 1 μM): 9% inbibition at 1 μM

Molecule: NC1(C(=O)O)CC2CC1C2C(=O)O (stereo not shown) [ABHxD-I, 2-aminobicyclo 2.1.1 hexahe-2.5-dicarboxylic acid, reference compound]
- Protection against NMDA toxicity (in words) [9]: not able to protect against NMDA toxicity
- Protection against NMDA toxicity (in words) ([2]; model C, 10 μM, NMDA 20 μM): as effective as in model B
- Reduction of the toxic effect of NMDA ([5]; 10 μM, NMDA 75 μM): over 40%

Molecule: O=C(O)CC[C@@H](NC(=O)N[C@H](CCC(=O)O)C(=O)O)C(=O)O [FN13]
- Neuroprotection ([2]; model C, 100 μM): about 20%

Molecule: CC(=O)N[C@@H](CC(=O)O)C(=O)N[C@@H](CCC(=O)O)C(=O)O [NAAG, N-acetyl-L-aspartate-L-glutamate, reference compound] (Ac-Asp-Glu-OH)
- EC50 (mGluR3 [4]; cell lines transfected with mGluR1-6, read-out: EC50 for activation of mGluR3): 65000 ± 20000 nM

Molecule: O=C(O)CCC(CC(=O)CC(CCC(=O)O)C(=O)O)C(=O)O (stereo not shown) [A]
- mGluR3 activity (in words) (mGluR3 [8]): retained significant mGluR3 activity

Molecule: N[C@@H](CC(=O)O)C(=O)N[C@@H](CC(=O)O)C(=O)O [(S)-Asp-(S)-Asp, reference compound] (H-Asp-Asp-OH)
- inhibition of GCPII (rat GCPII [3]; at 100 μM, dipeptide, published data for comparison): 42% inhibition at 100 μM
- IC50 (rat GCPII [3]; published data, ref. 6a): 58000 nM
